Reference: patent publication US20050165025A1, “Combination therapy with 5HT 1A and 5HT 1B-receptor antagonists” (Recordati Ireland Ltd., priority 2004, published 2005)
Like-named read-outs stand apart in the source and are kept apart here.

How the values were obtained:
anaesthetised rats = experiment: Rhythmic bladder-voiding contractions induced by bladder filling in anaesthetised rats; type: in vivo, rat; conditions: compound alone
Experimental: Female Sprague-Dawley rats weighing 225-275 g (Crl: CDo Br, Charles River Italia) were used. The animals were housed with free access to food and water and maintained on a forced 12-hour alternating light-dark cycle at 22-24° C. for at least one week, except during the experiment. The activity on rhythmic bladder voiding contractions was evaluated according to the method of Dray J., Pharmacol. Methods, 13:157, 1985, with some modifications as in Guarneri (Guarneri, Pharmacol. Res. 27:173, 1993. Briefly, the rats were anaesthetised by subcutaneous injection of 1.25 g/kg (5 ml/kg) urethane, after which the urinary bladder was catheterised via the urethra using PE 50 polyethylene tubing filled with physiological saline. The catheter was tied in place with a ligature around the external urethral orifice and was connected to conventional pressure transducers (Statham P23 ID/P23 XL). […] The bladder was then filled via the recording catheter by incremental volumes of warm (37° C.) saline until reflex bladder-voiding contractions occurred (usually 0.8-1.5 ml). For intravenous injection of bioactive compounds, PE 50 polyethylene tubing filled with physiological saline was inserted into the jugular vein. Tested compounds were administered or co-administered in solution in a final volume of 0.5 ml/kg.
From the cystometrogram, the number of contractions recorded 15 minutes before (basal values) and after treatment, as well as the mean amplitude of these contractions (mean height of the peaks in mmHg), was evaluated.
Since most compounds produced an effect that was relatively rapid in onset and led to a complete cessation of bladder contractions, bioactivity was conveniently estimated by measuring the duration of bladder quiescence (i.e., the length of the time in minutes during which no contractions occurred: disappearance time=DT). The administered doses (alone or in combination) of the tested compounds were chosen on the basis of previously published results obtained with the same compounds in the utilized model (Testa et al., J. Pharmacol. Exp. Ther. 290: 1258, 1999; Leonardi et al., J. Pharmacol. Exp. Ther. 299: 1027, 2001; Testa et al., BJU Int. 87: 256, 2001) or of their affinity for the 5HT1A or 5-HT1B receptor.

[1] = biological target: T1, human 5HT1A-serotonergic receptor (Homo sapiens, UniProt P08908); conditions: literature reference given in table; read-out: Binding affinity at 5HT1A receptors, Ki; cited from earlier work
T1 construct: expressed in transfected cells; host or cells: HeLa (human), stably transfected; cell membranes
T1 sequence (P08908 1-422): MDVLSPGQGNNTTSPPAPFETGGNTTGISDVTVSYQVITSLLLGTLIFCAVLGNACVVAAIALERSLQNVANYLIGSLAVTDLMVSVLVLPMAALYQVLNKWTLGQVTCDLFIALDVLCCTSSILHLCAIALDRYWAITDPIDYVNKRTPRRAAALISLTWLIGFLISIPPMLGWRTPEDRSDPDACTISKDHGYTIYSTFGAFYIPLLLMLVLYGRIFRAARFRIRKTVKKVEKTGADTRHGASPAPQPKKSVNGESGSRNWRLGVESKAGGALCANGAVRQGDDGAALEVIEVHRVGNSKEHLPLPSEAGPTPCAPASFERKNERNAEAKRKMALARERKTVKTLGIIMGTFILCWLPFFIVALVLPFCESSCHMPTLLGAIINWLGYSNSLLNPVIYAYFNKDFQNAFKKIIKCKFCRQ

[2] = biological target: T1, human 5HT1A-serotonergic receptor; experiment: Radioligand binding to recombinant 5-HT1A receptors ([3H]8-OH-DPAT, HeLa cell membranes); conditions: Recordati data on file; read-out: Binding affinity at 5HT1A receptors, Ki
Experimental: Genomic clone G-21 coding for the human 5HT1A-serotonergic receptor was stably transfected in a human cell line (HeLa). HeLa cells were grown as monolayers in Dulbecco's modified Eagle medium (DMEM), containing 10% fetal bovine serum, gentamicin ([…]) and 5% carbon dioxide, at 37° C. The cells were detached from the growth flask at 95% confluence by a cell scraper and were lysed in cold 5 mM Tris and 5 mM EDTA buffer (pH 7.4). The homogenates were centrifuged at 40000×g×20 minutes and the pellets were resuspended in a small volume of cold 5 mM Tris and 5 mM EDTA buffer (pH 7.4) and immediately frozen and stored at −70° C. until use. On the day of experiment, the cell membranes were resuspended in incubation buffer: 50 mM Tris HCl (pH 7.4), 2.5 mM MgCl2, […] (Fargin et al., Nature 335, 358, 1988). The membranes were incubated in a fmal volume of 1 ml for 30 minutes at 30° C. with 1 nM [^3H]8—OH-DPAT, in the absence or presence of the test compounds. Non-specific binding was determined in the presence of 10 μM 5-HT. […]
The affinity of the tested compounds was evaluated as inhibition of specific binding of the radioligand to 5-HT1A receptors (IC50) by using the non-linear curve-fitting program Allfit (De Lean et al., Am. J. Physiol. 235: E97, 1978). […]

Compound: COc1ccccc1N1CCN(CCN(C(=O)C2CCCCC2)c2ccccc2[N+](=O)[O-])CC1 [REC 15/3079, 1-[N-(2-nitrophenyl)-N-cyclohexylcarbonyl-2-aminoethyl]-4-(2-methoxyphenyl)piperazine]
- disappearance time (DT) of bladder contractions (anaesthetised rats; 0.03 mg/kg i.v.): 2.26 ± 0.51 min
- Ki [1]: 0.2 nM

Compound: O=C1c2ccccc2S(=O)(=O)N1CCCCN1CCN(c2cc(Cl)cc3c2OCCO3)CC1 [Rec 0/031 1-DU 125530, 2-[4-[4-(7-chloro-2,3-dihydro-1,4-benzodioxin-5-yl)piperazin-1-yl]butyl]-1,2-benzisothiazol-3(2H)-one 1,1-dioxide]
- disappearance time (DT) of bladder contractions (anaesthetised rats; 0.01 mg/kg i.v.): 6.96 ± 1.05 min

Compound: OC(CCN1CCN(c2cccc3[nH]ccc23)CC1)(c1ccccn1)c1ccccn1 [Rec 27/0206, 1-[3-hydroxy-3,3 bis-(2-pyridyl)propyl]-4-(4-indolyl)piperazine]
- Ki [2]: 4.75 nM
- disappearance time (DT) of bladder contractions (anaesthetised rats; 0.1 mg/kg i.v.): 9.29 ± 0.80 min

Compound: COc1ccc(NC(=O)c2ccc(-c3ccc(-c4noc(C)n4)cc3C)cc2)cc1OCCN(C)C [SB 216641]
- disappearance time (DT) of bladder contractions (anaesthetised rats; 0.3 mg/kg i.v.): 1.50 ± 0.28 min

Compound: Cc1nc(-c2ccc(-c3ccc(C(=O)N4CCc5cc6c(cc54)C4(CCN(C)CC4)CO6)cc3)c(C)c2)no1 [SB 224289]
- disappearance time (DT) of bladder contractions (anaesthetised rats; 1.0 mg/kg i.v.): 2.40 ± 0.46 min

Compound: COc1ccccc1N1CCN(CCN(C(=O)C2CCCCC2)c2ccccn2)CC1 [WAY 100635, N-[2-[4-(2-methoxyphenyl)piperazin-1-yl]ethyl]-N-(2-pyridyl)cyclohexanecarboxamide]
- disappearance time (DT) of bladder contractions (anaesthetised rats; 0.01 mg/kg i.v.): 10.39 ± 1.45 min
